Test results: patent US5164411A, “Pyrethroid compositions” (priority 1991, dated 1992)
≈ marks a conversion by molar mass, not a printed value.

How the values were obtained:
[1] = test system: cabbage looper (Trichoplusia ni); test: Foliar evaluation, cabbage looper (CL); assay type: in vivo; details: for LC50: Trichoplusia ni, foliar, pinto beans, mortality at 48 hours
Method: (§1) Cypermethrin and sigma-cypermethrin were tested by foliar application at various concentrations in aqueous solutions containing 9.75% acetone and 0.25% octylphenoxypolyethoxyethanol. Insect species utilized included the cabbage looper (Trichoplusia ni), southern armyworm (Spodoptera eridania), Mexican bean beetle (Epilachna varivestis), tobacco budworm (Heliothis virescens), and corn earworm (Heliothis zea).
(§2) For all insects, pinto beans (Phaseolus vulgaris) plants were treated with the test solutions. The test solutions were applied with a sprayer to the upper and lower surfaces of the plant leaves to runoff. The plants were then allowed to dry and were severed at the base of the stem before being placed in cups. Ten second instar individuals of the appropriate insect species, except the tobacco budworm and corn earworm, were placed in each cup and the cup covered. Tests with the tobacco budworm and corn earworm used four replicates with each replicate containing five second instar insects. In all tests, mortality was read 48 hours later. The sigma-cypermethrin used in the foliar evaluations was the product of Example 2.

[2] = test system: southern armyworm (Spodoptera eridania); test: Foliar evaluation, southern armyworm (SAW); assay type: in vivo; details: for LC50: Spodoptera eridania, foliar, pinto beans, mortality at 48 hours
Method: as §1, §2

[3] = test system: tobacco budworm strain resistant to pyrethroids; test: Foliar evaluation, pyrethroid-resistant tobacco budworm (TBW-R); assay type: in vivo, Heliothis virescens; details: for LC50: Heliothis virescens, foliar, pinto beans, mortality at 48 hours
Method: as §1, §2

[4] = test system: corn earworm (Heliothis zea); test: Foliar evaluation, corn earworm (CEW); assay type: in vivo; details: for LC50: Helicoverpa zea, foliar, pinto beans, mortality at 48 hours
Method: as §1, §2

[5] = test system: Heliothis sp.; test: Field trials on cotton, control of Heliothis sp.; assay type: in vivo, Heliothis virescens and Heliothis zea; details: for Yield: seed cotton per acre
From the text: Plots were a minimum of 0.2 acres, and all applications were by commercial ground equipment with a minimum of 10 gallons total spray solution per acre. The cypermethrin isomer content (weight %) of the several sigma-cypermethrin technical products used in the field trials were as follows:
Analysis of the data was based on a seasonal average of multiple evaluations taken over a four to six week period (3-4 applications) in trials for control of Heliothis sp.

[6] = test system: cabbage looper; test: Field trials on lettuce, control of cabbage looper; assay type: in vivo, Trichoplusia ni
From the text: Field trials conducted on lettuce in California for evaluation of the control of cabbage looper consisted of a randomized complete block design of four replications per treatment. Applications were made to small plots with CO2 backpack sprayer using a minimum of 10 gallons per acre. Results were converted to percent control based on untreated check plots.

[7] = test system: rats; test: 90-day feeding study; assay type: in vivo; details: for no observable effect level (NOEL): in diet, at least ninety days
Method: In the 90-day feeding study, conducted in compliance with EPA guideline 82-1, the compound under test was administered continuously in the diet to groups of rats for at least ninety days at concentrations of 0, 150, and 1500 ppm to groups of fifteen Sprague-Dawley rats for cypermethrin and 0, 10, 50, 150, 250, 500, and 900 ppm to groups of ten Fisher 344 rats for sigma-cypermethrin. (The rates for sigma-cypermethrin were lower, because it was expected to be more toxic than cypermethrin.) The cypermethrin isomer content (weight %) of the sigma-cypermethrin technical product used in this study was total isomers--88.2%, S-isomers--82%, cis/trans ratio--53/47. Individual body weight and food consumption values were recorded weekly. At termination, hematology and clinical chemistry determinations were conducted and organ weights were obtained for adrenals, brain, heart, kidneys, liver, and ovaries or testes. Histopathological examination of approximately 40 tissues was conducted on all animals in the control group and in the highest dose group in the cypermethrin study and in the highest two groups (500 and 900 ppm) in the sigma-cypermethrin study. In addition, histopathological examination was performed on the lungs, liver, and kidneys of animals in the mid-dose groups of both studies ([…] and 10, 50, 150, and 250 ppm for sigma-cypermethrin). An ophthalmic examination was conducted on all animals prior to initiation of treatment and prior to final sacrifice.

[8] = Teratology; assay type: in vivo, Sprague-Dawley rat; details: rat, po; gavage in corn oil, once daily, gestation days 6 through 15; read-out: NOEL
Method: (§3) These tests were conducted in compliance with EPA guideline 83-3 for the purpose of determining the effects of the test materials on pregnancy and in utero development. The test materials were administered via gavage in corn oil once daily to female Sprague-Dawley rats on days 6 through 15 of presumed gestation. There were 25 animals per dose group. Dosages of 0, 17.5, 37.5, and 75 mg/kg for cypermethrin and 0, 5, 12.5, 25, and 35 mg/kg for sigma-cypermethrin were administered. The cypermethrin isomer content (weight %) of the sigma-cypermethrin technical product used in this study was total isomers--89.1%, S-isomers--82%, cis/trans ratio--51/49. The control animals (0 mg/kg) received corn oil during the treatment period. All dosages were adjusted daily on the basis of body weights.
(§4) Daily observations of the rats were made during the dosage and postdosage periods. On gestation day 20 to 21 the rats were sacrificed for examination of their uterine contents, including the number of live and dead fetuses and the number of resorptions. Fetuses were subsequently examined for malformations.

[9] = test system: female Sprague-Dawley rats; test: Teratology; assay type: in vivo, Sprague-Dawley rat; details: for embryotoxic or teratogenic effect: at any dose
Method: as §3, §4

[10] = Ninety-six-hour flow-through acute toxicity, rainbow trout; assay type: in vivo, Oncorhynchus mykiss; details: 96 h flow-through, well water
Method: Ninety-six-hour flow-through acute toxicity studies of both cypermethrin and sigma-cypermethrin were conducted in the rainbow trout (Oncorhynchus mykiss) and in the sheepshead minnow (Cyprinodon variagatus) to determine the median-lethal-concentration (LC50) resulting from continuous exposure. For the rainbow trout the exposure medium was well water; for the sheepshead minnow, filtered seawater. Each group of 20 fish (10 per replicate aquarium) was exposed either to one of five concentrations of pyrethroid delivered in a diluter system in dimethylformamide (DMF), to 30 μL/L DMF in the exposure medium (solvent control), or to the exposure medium alone (control). Observations for mortality, morbidity, and other overt signs of toxicity were determined at prescribed intervals. Concentrations of the test materials were measured at the beginning and end of the exposure using a validated HPLC method. The cypermethrin isomer content (weight %) of the sigma-cypermethrin technical product used in this study was total isomers--88.2%, S-isomers--82%, cis/trans ratio--53/47.

[11] = Year 1, 0.022 lb ai/A, seasonal mean of 3 trials (MS, LA)
[12] = Year 1, 0.03 lb ai/A, seasonal mean of 3 trials (MS, LA)
[13] = Year 2, 0.026 lb ai/A, seasonal mean of 4 trials (MS, LA)
[14] = Year 3, 0.013 lb ai/A, seasonal mean of 6-8 trials (MS, LA, AL, GA)
[15] = Year 3, 0.026 lb ai/A, seasonal mean of 6-8 trials (MS, LA, AL, GA)
[16] = Year 3, 0.039 lb ai/A, seasonal mean of 6-8 trials (MS, LA, AL, GA)
[17] = Year 1, 0.06 lb ai/A, seasonal mean of 3 trials (MS, LA)
[18] = Year 2, 0.06 lb ai/A, seasonal mean of 4 trials (MS, LA)
[19] = Year 3, 0.06 lb ai/A, seasonal mean of 6-8 trials (MS, LA, AL, GA)

Structure (SMILES): CC1(C)C(C=C(Cl)Cl)C1C(=O)O[C@H](C#N)c1cccc(Oc2ccccc2)c1 (mixture of isomers) [sigma-cypermethrin, (S)(cyano)(3-phenoxyphenyl)methyl cis/trans-3-(2,2-dichloroethenyl)-2,2-dimethylcyclopropanecarboxylate]
- LC50 [1]: 1.4 µg/mL
- Relative Potency ([1]; vs cypermethrin, CL): 1.6
- LC50 [2]: 1.8 µg/mL
- Relative Potency ([2]; vs cypermethrin, SAW): 2.3
- LC50 [3]: 43 µg/mL
- Relative Potency ([3]; vs cypermethrin, TBW-R): 2.1
- LC50 [4]: 3.9 µg/mL
- Relative Potency ([4]; vs cypermethrin, CEW): 1.9
- % Hel. Live Larv. [5, 11]: 10%
- % Hel. Sq. Dam. [5, 11]: 9%
- Yield ([5]; Year 1, 0.022 lb ai/A, 3 trials (MS, LA)): 2828 lb SC/A
- % Hel. Live Larv. [5, 12]: 8%
- % Hel. Sq. Dam. [5, 12]: 9%
- Yield ([5]; Year 1, 0.03 lb ai/A, 3 trials (MS, LA)): 2795 lb SC/A
- % Hel. Live Larv. [5, 13]: 3%
- % Hel. Sq. Dam. [5, 13]: 3%
- % Hel. Live Larv. [5, 14]: 6%
- % Hel. Sq. Dam. [5, 14]: 3%
- Yield ([5]; Year 3, 0.013 lb ai/A, 6-8 trials): 2818 lb SC/A
- % Hel. Live Larv. [5, 15]: 5%
- % Hel. Sq. Dam. [5, 15]: 4%
- Yield ([5]; Year 3, 0.026 lb ai/A, 6-8 trials): 2778 lb SC/A
- % Hel. Live Larv. [5, 16]: 5%
- % Hel. Sq. Dam. [5, 16]: 3%
- Yield ([5]; Year 3, 0.039 lb ai/A, 6-8 trials): 2692 lb SC/A
- % Cabbage Looper Control ([6]; Year 1, 0.026 lb ai/A, 3 DAT, average of 2 trials (CA)): 83%
- % Cabbage Looper Control ([6]; Year 1, 0.026 lb ai/A, 7 DAT, average of 2 trials (CA)): 90%
- % Cabbage Looper Control ([6]; Year 2, 0.013 lb ai/A, 3 DAT, 1 trial (CA)): 98%
- % Cabbage Looper Control ([6]; Year 2, 0.013 lb ai/A, 7 DAT, 1 trial (CA)): 71%
- % Cabbage Looper Control ([6]; Year 2, 0.026 lb ai/A, 3 DAT, 1 trial (CA)): 98%
- % Cabbage Looper Control ([6]; Year 2, 0.026 lb ai/A, 7 DAT, 1 trial (CA)): 91%
- % Cabbage Looper Control ([6]; Year 2, 0.039 lb ai/A, 3 DAT, 1 trial (CA)): 100%
- % Cabbage Looper Control ([6]; Year 2, 0.039 lb ai/A, 7 DAT, 1 trial (CA)): 98%
- amount required to show an effect on rats relative to that expected from effect on insects ([7]; 90-day feeding): more than three times
- NOEL relative to the cypermethrin value ([7]; 90-day feeding, rats): more than one and a half times the cypermethrin value
- no observable effect level (NOEL) [7]: 250 ppm
- NOAEL [8]: 12.5 mg/kg
- embryotoxic or teratogenic effect [9]: no embryotoxic or teratogenic effect
- amount required to show an effect on rats relative to that expected from effect on insects ([9]; teratology): 1.4 times
- LC50 at 96 h [10]: 0.00069 µg/mL

Structure (SMILES): CC1(C)C(C=C(Cl)Cl)C1C(=O)OC(C#N)c1cccc(Oc2ccccc2)c1 (stereo not drawn) [cypermethrin, (cyano)(3-phenoxyphenyl)methyl 3-(2,2-dichloroethenyl)-2,2-dimethylcyclopropanecarboxylate, reference compound]
- LC50 [1]: 2.3 µg/mL (≈ 5.52 µM)
- LC50 [2]: 4.2 µg/mL (≈ 10.1 µM)
- LC50 [3]: 92 µg/mL (≈ 221 µM)
- LC50 [4]: 7.3 µg/mL (≈ 17.5 µM)
- % Hel. Live Larv. [5, 17]: 9%
- % Hel. Sq. Dam. [5, 17]: 9%
- Yield ([5]; Year 1, 0.06 lb ai/A, 3 trials (MS, LA)): 2641 lb SC/A
- % Hel. Live Larv. [5, 18]: 2%
- % Hel. Sq. Dam. [5, 18]: 3%
- % Hel. Live Larv. [5, 19]: 4%
- % Hel. Sq. Dam. [5, 19]: 3%
- Yield ([5]; Year 3, 0.06 lb ai/A, 6-8 trials): 2675 lb SC/A
- % Cabbage Looper Control ([6]; Year 1, 0.06 lb ai/A, 3 DAT, average of 2 trials (CA)): 61%
- % Cabbage Looper Control ([6]; Year 1, 0.06 lb ai/A, 7 DAT, average of 2 trials (CA)): 78%
- % Cabbage Looper Control ([6]; Year 2, 0.06 lb ai/A, 3 DAT, 1 trial (CA)): 94%
- % Cabbage Looper Control ([6]; Year 2, 0.06 lb ai/A, 7 DAT, 1 trial (CA)): 81%
- no observable effect level (NOEL) [7]: 150 ppm
- NOAEL [8]: 17.5 mg/kg
- embryotoxic or teratogenic effect [9]: no embryotoxic or teratogenic effect
- LC50 at 96 h [10]: 0.000897 µg/mL (≈ 0.00215 µM)
